Structures can show the parent of a compound that is named as a salt.
Target: T1, Farnesyltransferase (FTase) (Bos taurus, UniProt P29702+P49355)
T1 construct: precipitation from a beef brain homogenate; from tissue; host or cells: bovine brain
Assay: Farnesyltransferase inhibition (scintillation proximity assay, [3H]-FPP / biotin-K-ras peptide)
Format: biochemical, bovine
Conditions: not given
How it was run: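 Bovine brain FTase, partially purified by 30–50% saturated ammonium sulfate precipitation and DEAE Sepharose chromatography, separated from GGTase I/II. Scintillation proximity read-out of [3H]-FPP transfer to biotin-K-ras peptide, counted 1 h after quench. Compounds added from ethanol with 10-fold dilution into assay.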

T1 sequence (P49355 whole entry, one chain of several): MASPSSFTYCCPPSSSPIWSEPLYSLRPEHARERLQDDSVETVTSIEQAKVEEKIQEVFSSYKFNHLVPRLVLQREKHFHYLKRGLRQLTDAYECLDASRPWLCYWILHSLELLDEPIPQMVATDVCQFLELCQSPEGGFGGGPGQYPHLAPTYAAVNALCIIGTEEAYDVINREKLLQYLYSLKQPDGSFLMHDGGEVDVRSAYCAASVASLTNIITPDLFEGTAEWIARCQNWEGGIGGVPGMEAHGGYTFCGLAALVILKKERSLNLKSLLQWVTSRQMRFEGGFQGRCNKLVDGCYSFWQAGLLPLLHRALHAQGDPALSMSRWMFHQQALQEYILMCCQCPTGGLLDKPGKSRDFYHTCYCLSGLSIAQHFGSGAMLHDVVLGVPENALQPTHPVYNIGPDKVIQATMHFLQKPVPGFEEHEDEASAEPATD

Point of comparison: Cc1ccccc1-c1cc(C(OCc2ccc(S(C)(=O)=O)cc2)c2cncn2C)ccc1C#N.Cl (centres unmarked) [Example 151], “% Inhibition at 10^−6M” value 94%. Against it:
- Cc1ccccc1-c1cc(C(OCc2ccc([N+](=O)[O-])cc2)c2cncn2C)ccc1C#N.Cl (centres unmarked) [Example 121] — higher, 96%
- Cc1ccccc1-c1cc(C(OCc2cccc(C(F)(F)F)c2)c2cncn2C)ccc1C#N.Cl (centres unmarked) [Example 123] — higher, 97%
- Cc1ccc(COC(c2ccc(C#N)c(-c3ccccc3C)c2)c2cncn2C)cc1.Cl (centres unmarked) [Example 127] — lower, 93%
- Cc1cccc(COC(c2ccc(C#N)c(-c3ccccc3C)c2)c2cncn2C)c1.Cl (centres unmarked) [Example 128] — the same, 94%
- Cc1ccccc1COC(c1ccc(C#N)c(-c2ccccc2C)c1)c1cncn1C.Cl (centres unmarked) [Example 135] — the same, 94%
- Cc1ccccc1-c1cc(C(OCc2ccc(C(F)(F)F)cc2)c2cncn2C)ccc1C#N.Cl (centres unmarked) [Example 139] — higher, 97%
- Cc1ccccc1-c1cc(C(OCc2ccccc2[N+](=O)[O-])c2cncn2C)ccc1C#N.Cl (centres unmarked) [Example 142] — the same, 94%
- Cc1ccccc1-c1cc(C(OCc2cccc(OC(F)(F)F)c2)c2cncn2C)ccc1C#N.Cl (centres unmarked) [Example 143] — higher, 97%
- COc1cc(COC(c2ccc(C#N)c(-c3ccccc3C)c2)c2cncn2C)cc(OC)c1OC.Cl (centres unmarked) [Example 148] — higher, 95%
- Cc1ccccc1-c1cc(C(OCc2cccc3cccnc23)c2cncn2C)ccc1C#N.Cl (centres unmarked) [Example 149] — lower, 93%

Same assay, conditions: compound at 10^−6 M; bovine FTase, 37° C., 30 minutes

Point of comparison: Cc1ccccc1-c1cc(C(OCc2ccc(-c3ccccc3C#N)cc2)c2cncn2C)ccc1C#N (centres unmarked) [Example 145, 5-(((2′-cyano(1,1′-biphenyl)-4-yl)methoxy)(1-methyl-1H-imidazol-5-yl)methyl)-2′-methyl(1,1′-biphenyl)-2-carbonitrile hydrochloride], inhibition at 1 µM 97%. Against it:
- Cc1ccccc1-c1cc(C(OCc2cccc(Cl)c2)c2cncn2C)ccc1C#N (centres unmarked) [Example 120, 5-(((3-chlorobenzyl)oxy)(1-methyl-1H-imidazol-5-yl)methyl)-2′-methyl(1,1′-biphenyl)-2-carbonitrile hydrochloride] — lower, 90%
- COc1ccc([N+](=O)[O-])cc1COC(c1ccc(C#N)c(-c2ccccc2C)c1)c1cncn1C (centres unmarked) [Example 122, 5-(((2-methoxy-5-nitrobenzyl)oxy)(1-methyl-1H-imidazol-5-yl)methyl)-2′-methyl(1,1′-biphenyl)-2-carbonitrile hydrochloride] — lower, 94%
- Cc1ccccc1-c1cc(C(OCc2c(Cl)cccc2Cl)c2cncn2C)ccc1C#N (centres unmarked) [Example 124, 5-(((2,6-dichlorobenzyl)oxy)(1-methyl-1H-imidazol-5-yl)methyl)-2′-methyl(1,1′-biphenyl)-2-carbonitrile hydrochloride] — lower, 90%
- Cc1ccccc1-c1cc(C(OCc2ccc(Cl)c(Cl)c2)c2cncn2C)ccc1C#N (centres unmarked) [Example 125, 5-(((3,4-dichlorobenzyl)oxy)(1-methyl-1H-imidazol-5-yl)methyl)-2′-methyl(1,1′-biphenyl)-2-carbonitrile hydrochloride] — the same, 97%
- Cc1ccccc1-c1cc(C(OCc2ccccc2C#N)c2cncn2C)ccc1C#N (centres unmarked) [Example 126, 5-(((2-cyanobenzyl)oxy)(1-methyl-1H-imidazol-5-yl)methyl)-2′-methyl(1,1′-biphenyl)-2-carbonitrile hydrochloride] — lower, 92%
- Cc1ccccc1-c1cc(C(OCc2cc(F)ccc2F)c2cncn2C)ccc1C#N (centres unmarked) [Example 129, 5-(((2,5-difluorobenzyl)oxy)(1-methyl-1H-imidazol-5-yl)methyl)-2′-methyl(1,1′-biphenyl)-2-carbonitrile hydrochloride] — lower, 93%
- COC(=O)c1ccc(COC(c2ccc(C#N)c(-c3ccccc3C)c2)c2cncn2C)cc1 (centres unmarked) [Example 130, methyl 4-(((6-cyano-2′-methyl(1,1′-biphenyl)-3-yl)(1-methyl-1H-imidazol-5-yl)methoxy)methyl)benzoate hydrochloride] — the same, 97%
- Cc1ccccc1-c1cc(C(OCc2ccccc2Cl)c2cncn2C)ccc1C#N (centres unmarked) [Example 132, 5-(((2-chlorobenzyl)oxy)(1-methyl-1H-imidazol-5-yl)methyl)-2′-methyl(1,1′-biphenyl)-2-carbonitrile hydrochloride] — lower, 94%
- Cc1ccccc1-c1cc(C(OCc2ccc(Cl)cc2)c2cncn2C)ccc1C#N (centres unmarked) [Example 133, 5-(((4-chlorobenzyl)oxy)(1-methyl-1H-imidazol-5-yl)methyl)-2′-methyl(1,1′-biphenyl)-2-carbonitrile hydrochloride] — the same, 97%
- COc1cccc(COC(c2ccc(C#N)c(-c3ccccc3C)c2)c2cncn2C)c1 (centres unmarked) [Example 134, 5-(((3-methoxybenzyl)oxy)(1-methyl-1H-imidazol-5-yl)methyl)-2′-methyl(1,1′-biphenyl)-2-carbonitrile hydrochloride] — lower, 93%
- Cc1ccccc1-c1cc(C(OCc2cccc(F)c2)c2cncn2C)ccc1C#N (centres unmarked) [Example 136, 5-(((3-fluorobenzyl)oxy)(1-methyl-1H-imidazol-5-yl)methyl)-2′-methyl(1,1′-biphenyl)-2-carbonitrile hydrochloride] — lower, 95%
- Cc1ccccc1-c1cc(C(OCc2cc(Cl)nc(Cl)c2)c2cncn2C)ccc1C#N (centres unmarked) [Example 137, 5-(((2,6-dichloro-4-pyridinyl)methoxy)(1-methyl-1H-imidazol-5-yl)methyl)-2′-methyl(1,1′-biphenyl)-2-carbonitrile hydrochloride] — lower, 96%
- Cc1ccccc1-c1cc(C(OCc2ccccc2F)c2cncn2C)ccc1C#N (centres unmarked) [Example 138, 5-(((2-fluorobenzyl)oxy)(1-methyl-1H-imidazol-5-yl)methyl)-2′-methyl(1,1′-biphenyl)-2-carbonitrile hydrochloride] — lower, 92%
- Cc1cc(C)cc(COC(c2ccc(C#N)c(-c3ccccc3C)c2)c2cncn2C)c1 (centres unmarked) [Example 140, 5-(((3,5-dimethylbenzyl)oxy)(1-methyl-1H-imidazol-5-yl)methyl)-2′-methyl(1,1′-biphenyl)-2-carbonitrile hydrochloride] — lower, 94%
- Cc1ccccc1-c1cc(C(OCc2ccc(F)cc2C(F)(F)F)c2cncn2C)ccc1C#N (centres unmarked) [Example 141, 5-(((4-fluoro-2-(trifluoromethyl)benzyl)oxy)(1-methyl-1H-imidazol-5-yl)methyl)-2′-methyl(1,1′-biphenyl)-2-carbonitrile hydrochloride] — lower, 95%
- Cc1cc(COC(c2ccc(C#N)c(-c3ccccc3C)c2)c2cncn2C)c(C#N)cc1C#N (centres unmarked) [Example 144, 4-(((6-cyano-2′-methyl(1,1′-biphenyl)-3-yl)(1-methyl-1H-imidazol-5-yl)methoxy)methyl)-6-methylisophthalonitrile hydrochloride] — lower, 96%
- COC(=O)c1cccc(COC(c2ccc(C#N)c(-c3ccccc3C)c2)c2cncn2C)c1 (centres unmarked) [Example 146, methyl 3-(((6-cyano-2′-methyl(1,1′-biphenyl)-3-yl)(1-methyl-1H-imidazol-5-yl)methoxy)methyl)benzoate hydrochloride] — lower, 93%
- Cc1ccccc1-c1cc(C(OCc2ccc(F)c(F)c2)c2cncn2C)ccc1C#N (centres unmarked) [Example 147, 5-(((3,4-difluorobenzyl)oxy)(1-methyl-1H-imidazol-5-yl)methyl)-2′-methyl(1,1′-biphenyl)-2-carbonitrile hydrochloride] — lower, 96%
- COc1cc(COC(c2ccc(C#N)c(-c3ccccc3C)c2)c2cncn2C)cc(OC)c1 (centres unmarked) [Example 150, 5-(((3,5-dimethoxybenzyl)oxy)(1-methyl-1H-imidazol-5-yl)methyl)-2′-methyl(1,1′-biphenyl)-2-carbonitrile hydrochloride] — lower, 93%
- Cc1ccccc1-c1cc(C(OCc2cc3c(cc2Cl)OCO3)c2cncn2C)ccc1C#N (centres unmarked) [Example 152, 5-(((6-chloro-1,3-benzodioxol-5-yl)methoxy)(1-methyl-1H-imidazol-5-yl)methyl)-2′-methyl(1,1′-biphenyl)-2-carbonitrile hydrochloride] — lower, 89%
- Cc1ccccc1-c1cc(C(OCc2ccc(C(C)C)cc2)c2cncn2C)ccc1C#N (centres unmarked) [Example 153, 5-(((4-isopropylbenzyl)oxy)(1-methyl-1H-imidazol-5-yl)methyl)-2′-methyl(1,1′-biphenyl)-2-carbonitrile hydrochloride] — lower, 92%
- Cc1ccc(COC(c2ccc(C#N)c(-c3ccccc3C)c2)c2cncn2C)cc1C (centres unmarked) [Example 154, 5-(((3,4-dimethylbenzyl)oxy)(1-methyl-1H-imidazol-5-yl)methyl)-2′-methyl(1,1′-biphenyl)-2-carbonitrile hydrochloride] — lower, 95%
- Cc1ccccc1-c1cc(C(OCc2ccc(OCc3ccccc3)cc2)c2cncn2C)ccc1C#N (centres unmarked) [Example 155, 5-(((4-(benzyloxy)benzyl)oxy)(1-methyl-1H-imidazol-5-yl)methyl)-2′-methyl(1,1′-biphenyl)-2-carbonitrile hydrochloride] — lower, 92%
- Cc1ccccc1-c1cc(C(OCc2cc(F)cc3c2OCOC3)c2cncn2C)ccc1C#N (centres unmarked) [Example 156, 5-(((6-fluoro-4H-1,3-benzodioxin-8-yl)methoxy)(1-methyl-1H-imidazol-5-yl)methyl)-2′-methyl(1,1′-biphenyl)-2-carbonitrile hydrochloride] — lower, 92%
- Cc1ccccc1-c1cc(C(OCc2ccc(Cl)cc2Cl)c2cncn2C)ccc1C#N (centres unmarked) [Example 157, 5-(((2,4-dichlorobenzyl)oxy)(1-methyl-1H-imidazol-5-yl)methyl)-2′-methyl(1,1′-biphenyl)-2-carbonitrile hydrochloride] — the same, 97%

Same assay, conditions: compound at 10^−6 M; bovine FTase, 37° C., 30 minutes; hydrochloride

For Cc1cc(C)cc(COC(c2ccc(C#N)c(-c3ccccc3C)c2)c2cncn2C)c1.Cl (centres unmarked) [Example 158, 5-(((3,5-dimethylbenzyl)oxy)(1-methyl-1H-imidazol-5-yl)methyl)-2′-methyl(1,1′-biphenyl)-2-carbonitrile hydrochloride], the “% Inhibition at 10^−6M” value was 95%.

From patent US20020019527A1 (priority 2000, published 2002)
